PubChem BioAssay (NCI)
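1) Cells in 96-well plates. 2) Compound, 48 h, 5 concentrations. 3) Linear interpolation between surrounding doses. 4) Unreached endpoint = highest concentration. Abbreviation: GI50, concentration required for 50% inhibition of growth. TGI is the concentration that stops growth completely.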

Assays:
Experiment in all cases: growth of human tumour cells (NCI), 48 h
HT29 colon = test system: HT29 colon
HS 578T breast = test system: HS 578T breast
HCT-15 colon = test system: HCT-15 colon
MALME-3M melanoma = test system: MALME-3M melanoma
KM12 colon = test system: KM12 colon
HOP-62 NSCLC = test system: HOP-62 NSCLC
786-0 renal = test system: 786-0 renal
HCT-116 colon = test system: HCT-116 colon
SW-620 colon = test system: SW-620 colon
SNB-19 CNS = test system: SNB-19 CNS

Question: Which TGI (HT29 colon) does the source give for Nc1n[n+]([O-])c2ccc(Cl)cc2[n+]1[O-] here?
Answer: 77 µM

Question: What about the TGI (HS 578T breast) of the same compound?
Answer: > 100 µM

Question: And the TGI (HCT-15 colon)?
Answer: 58.9 µM

Question: What about the TGI (MALME-3M melanoma) of the same compound?
Answer: 59 µM

Question: And the TGI (KM12 colon)?
Answer: 32.6 µM

Question: And the TGI (HOP-62 NSCLC)?
Answer: 79.7 µM

Question: What about the TGI (786-0 renal) of the same compound?
Answer: > 100 µM

Question: What about the TGI (HCT-116 colon) of the same compound?
Answer: > 100 µM

Question: And the TGI (SW-620 colon)?
Answer: 61.2 µM

Question: And the TGI (SNB-19 CNS)?
Answer: > 100 µM

Question: Which GI50 (HT29 colon) does the source give for O=C(CCN1CCCC1)Nc1ccc2c(Nc3ccc(F)cc3)c3ccccc3nc2c1 here?
Answer: 0.734 µM

Question: What about the TGI (HT29 colon) of the same compound?
Answer: 3.72 µM

Question: And the GI50 (HS 578T breast)?
Answer: 1.74 µM

Question: What about the TGI (HS 578T breast) of the same compound?
Answer: 4.54 µM

Question: What about the GI50 (HCT-15 colon) of the same compound?
Answer: 0.699 µM

Question: What about the TGI (HCT-15 colon) of the same compound?
Answer: 2.53 µM

Question: What about the GI50 (MALME-3M melanoma) of the same compound?
Answer: 1.57 µM

Question: And the TGI (MALME-3M melanoma)?
Answer: 2.99 µM

Question: What about the GI50 (KM12 colon) of the same compound?
Answer: 1.48 µM

Question: What about the TGI (KM12 colon) of the same compound?
Answer: 4.11 µM

Question: And the GI50 (HOP-62 NSCLC)?
Answer: 0.864 µM

Question: And the TGI (HOP-62 NSCLC)?
Answer: 3.7 µM

Question: And the GI50 (786-0 renal)?
Answer: 1.21 µM

Question: And the TGI (786-0 renal)?
Answer: 2.77 µM

Question: What about the GI50 (HCT-116 colon) of the same compound?
Answer: 0.906 µM

Question: What about the TGI (HCT-116 colon) of the same compound?
Answer: 2.58 µM

Question: And the GI50 (SW-620 colon)?
Answer: 0.64 µM

Question: And the TGI (SW-620 colon)?
Answer: 2.29 µM

Question: And the GI50 (SNB-19 CNS)?
Answer: 0.836 µM

Question: What about the TGI (SNB-19 CNS) of the same compound?
Answer: 3.53 µM

Question: COC(=O)NC1(NC(=O)OC)NC(=O)c2ccccc2N1 was tested. Which TGI (HT29 colon) did it give?
Answer: > 100 µM

Question: What about the TGI (HS 578T breast) of the same compound?
Answer: > 100 µM

Question: And the TGI (HCT-15 colon)?
Answer: > 100 µM

Question: And the TGI (MALME-3M melanoma)?
Answer: > 100 µM

Question: What about the TGI (KM12 colon) of the same compound?
Answer: > 100 µM

Question: What about the TGI (HOP-62 NSCLC) of the same compound?
Answer: > 100 µM

Question: And the TGI (786-0 renal)?
Answer: > 100 µM

Question: And the TGI (HCT-116 colon)?
Answer: > 100 µM

Question: What about the TGI (SW-620 colon) of the same compound?
Answer: > 100 µM

Question: What about the TGI (SNB-19 CNS) of the same compound?
Answer: > 100 µM

Question: What does the source list for Nc1c(C(=O)c2cccc(-c3cccnc3)c2)cnn1-c1ccc(F)cc1?
Answer: GI50 (HT29 colon): > 25 µM; TGI (HT29 colon): > 25 µM; GI50 (HS 578T breast): > 25 µM; TGI (HS 578T breast): > 25 µM; GI50 (HCT-15 colon): > 25 µM; TGI (HCT-15 colon): > 25 µM; GI50 (MALME-3M melanoma): > 25 µM; TGI (MALME-3M melanoma): > 25 µM; GI50 (KM12 colon): > 25 µM; TGI (KM12 colon): > 25 µM; GI50 (HOP-62 NSCLC): > 17.3 µM; TGI (HOP-62 NSCLC): > 25 µM; GI50 (786-0 renal): > 25 µM; TGI (786-0 renal): > 25 µM; GI50 (HCT-116 colon): > 25 µM; TGI (HCT-116 colon): > 25 µM; GI50 (SW-620 colon): > 25 µM; TGI (SW-620 colon): > 25 µM; GI50 (SNB-19 CNS): > 25 µM; TGI (SNB-19 CNS): > 25 µM

Question: What does the source list for O=C1OC(c2ccc([N+](=O)[O-])cc2)=N/C1=C\c1ccc(Cl)cc1?
Answer: TGI (HT29 colon): > 100 µM; TGI (HS 578T breast): > 100 µM; TGI (HCT-15 colon): > 100 µM; TGI (MALME-3M melanoma): > 100 µM; TGI (KM12 colon): > 100 µM; TGI (HOP-62 NSCLC): > 100 µM; TGI (786-0 renal): > 100 µM; TGI (HCT-116 colon): > 100 µM; TGI (SW-620 colon): > 100 µM; TGI (SNB-19 CNS): > 100 µM

Question: For C[C@H]1C[C@@H](n2c(Nc3ccc(OC(F)(F)F)cc3)nc3cc(CCC(=O)O)ccc32)CC(C)(C)C1, which GI50 (HT29 colon) is on record?
Answer: 14.6 µM

Question: What about the TGI (HT29 colon) of the same compound?
Answer: 30.9 µM

Question: And the GI50 (HS 578T breast)?
Answer: 10.5 µM

Question: And the TGI (HS 578T breast)?
Answer: 31.1 µM

Question: What about the GI50 (HCT-15 colon) of the same compound?
Answer: 5.69 µM

Question: What about the TGI (HCT-15 colon) of the same compound?
Answer: 18.9 µM

Question: And the GI50 (MALME-3M melanoma)?
Answer: 16.2 µM

Question: And the TGI (MALME-3M melanoma)?
Answer: 37.3 µM

Question: And the GI50 (KM12 colon)?
Answer: 10.5 µM

Question: What about the TGI (KM12 colon) of the same compound?
Answer: 24 µM

Question: And the GI50 (HOP-62 NSCLC)?
Answer: 20.6 µM

Question: And the TGI (HOP-62 NSCLC)?
Answer: 39.4 µM

Question: And the GI50 (786-0 renal)?
Answer: 5.5 µM

Question: What about the TGI (786-0 renal) of the same compound?
Answer: 19.7 µM

Question: What about the GI50 (HCT-116 colon) of the same compound?
Answer: 5.04 µM

Question: What about the TGI (HCT-116 colon) of the same compound?
Answer: 18.5 µM

Question: What about the GI50 (SW-620 colon) of the same compound?
Answer: 15.3 µM

Question: What about the TGI (SW-620 colon) of the same compound?
Answer: 32.5 µM

Question: What about the GI50 (SNB-19 CNS) of the same compound?
Answer: 12.1 µM

Question: What about the TGI (SNB-19 CNS) of the same compound?
Answer: 31.2 µM
